Laboratory results from patent publication US20060069132A1, “Azolecarboxamide herbicides” (priority 2004, published 2006).

Legend:
[1] = system: lambsquarters; assay: Test B pre-/postemergence herbicide test; assay type: in vivo, Chenopodium album; conditions: for Lambsquarters plant response rating: postemergence
Method in brief: (§1)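 Pre: seeds sown, then sprayed. Post: 1–4-leaf plants (2–18 cm) sprayed at the same time. Paddy: flooded, treated at 2-leaf stage. Formulation: non-phytotoxic solvent with surfactant. Greenhouse 13–15 days; visual 0–100 score relative to controls.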

[2] = system: morningglory; assay: Test A pre-/postemergence herbicide test; assay type: in vivo, Ipomoea spp.
Method in brief: (§2)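 Visual injury scores on a 0–100 scale (100 = complete control) taken about ten days post-treatment in greenhouse against untreated controls; dash means no result. Treatments: preemergence soil spray and postemergence spray to runoff on one- to two-leaf plants 2 to 10 cm tall, surfactant-containing formulation.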

[3] = system: blackgrass; assay: Test B postemergence herbicide test; assay type: in vivo, Alopecurus myosuroides; conditions: postemergence
Method in brief: (§3)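 After treating 2-leaf paddy plants or 2–18 cm postemergence plants (1 to 4 leaves) with formulated chemical, researchers kept them in a greenhouse for 13–15 days. Effects were judged visually versus controls: 0 indicates none, 100 total control.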

[4] = system: rice; assay: Test B flooded paddy test; assay type: in vivo, Oryza sativa; conditions: 1000 g ai/ha, scale 0 to 100 (0 no effect, 100 complete control)
Method in brief: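 Plants grow to 1- to 4-leaf stage (2–18 cm) for postemergence spraying, or to 2-leaf stage for the paddy test. Formulated compound is applied. Greenhouse holding lasts 13–15 days. Response is scored visually relative to controls, 0 no effect to 100 complete control; a dash means no result.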

[5] = system: redroot pigweed; assay: Test A pre-/postemergence herbicide test; assay type: in vivo, Amaranthus retroflexus
Method in brief: as §2

[6] = system: giant foxtail; assay: Test A pre-/postemergence herbicide test; assay type: in vivo, Setaria faberi
Method in brief: as §2

[7] = system: large crabgrass; assay: Test A pre-/postemergence herbicide test; assay type: in vivo, Digitaria sanguinalis
Method in brief: as §2

[8] = system: cocklebur; assay: Test B pre-/postemergence herbicide test; assay type: in vivo, Xanthium strumarium; conditions: for Cocklebur plant response rating: postemergence
Method in brief: (§4)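 Flooded paddy rice and barnyardgrass were treated at the 2-leaf stage; upland plantings received compound either on sown seed or on 1- to 4-leaf seedlings. All were kept 13–15 days in a greenhouse and scored visually, 0–100, relative to untreated plants.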

[9] = system: large crabgrass; assay: Test B pre-/postemergence herbicide test; assay type: in vivo, Digitaria sanguinalis; conditions: for Crabgrass, Large plant response rating: postemergence
Method in brief: as §1

[10] = system: small flower umbrella sedge; assay: Test B flooded paddy test; assay type: in vivo, Cyperus difformis; conditions: 1000 g ai/ha, scale 0 to 100 (0 no effect, 100 complete control)
Method in brief: as §3

[11] = system: morningglory; assay: Test B pre-/postemergence herbicide test; assay type: in vivo, Ipomoea coccinea; conditions: for Morningglory plant response rating: postemergence
Method in brief: as §4

[12] = system: barnyardgrass; assay: Test B flooded paddy test; assay type: in vivo, Echinochloa crus-galli; conditions: 1000 g ai/ha, scale 0 to 100 (0 no effect, 100 complete control)
Method in brief: as §3

[13] = system: barnyardgrass; assay: Test B pre-/postemergence herbicide test; assay type: in vivo, Echinochloa crus-galli; conditions: for Barnyardgrass plant response rating: postemergence
Method in brief: as §4

[14] = system: corn; assay: Test B pre-/postemergence herbicide test; assay type: in vivo, Zea mays; conditions: for Corn plant response rating: postemergence
Method in brief: as §1

[15] = system: wheat; assay: Test B postemergence herbicide test; assay type: in vivo, Triticum aestivum; parameters: key to Wheat plant response rating: 0 = no effect, 100 = complete control; conditions: postemergence
Method in brief: as §3

[16] = system: pigweed; assay: Test B pre-/postemergence herbicide test; assay type: in vivo, Amaranthus retroflexus; conditions: for Pigweed plant response rating: postemergence
Method in brief: as §1

[17] = system: Surinam grass; assay: Test B pre-/postemergence herbicide test; assay type: in vivo, Urochloa decumbens; conditions: for Surinam Grass plant response rating: postemergence
Method in brief: as §1

[18] = system: velvetleaf; assay: Test B pre-/postemergence herbicide test; assay type: in vivo, Abutilon theophrasti; conditions: for Velvetleaf plant response rating: postemergence
Method in brief: as §1

[19] = system: ducksalad; assay: Test B flooded paddy test; assay type: in vivo, Heteranthera limosa; conditions: 1000 g ai/ha, scale 0 to 100 (0 no effect, 100 complete control)
Method in brief: as §3

[20] = system: velvetleaf; assay: Test A pre-/postemergence herbicide test; assay type: in vivo, Abutilon theophrasti
Method in brief: as §2

[21] = system: giant foxtail; assay: Test B pre-/postemergence herbicide test; assay type: in vivo, Setaria faberi; conditions: for Foxtail, Giant plant response rating: postemergence
Method in brief: as §1

[22] = system: barnyardgrass; assay: Test A pre-/postemergence herbicide test; assay type: in vivo, Echinochloa crus-galli
Method in brief: as §2

[23] = system: wild oat; assay: Test B postemergence herbicide test; assay type: in vivo, Avena fatua; conditions: postemergence
Method in brief: as §3

[24] = 125 g ai/ha, 0 is no effect, 100 is complete control, preemergence
[25] = 125 g ai/ha, visual rating, scale 0 (no effect) to 100 (complete control)
[26] = 500 g ai/ha, visual rating, 0 = no effect, 100 = complete control, preemergence
[27] = 500 g ai/ha, scale 0 to 100, 0 is no effect, 100 is complete control
[28] = Postemergence, 500 g ai/ha, 0 to 100 scale, 0 no effect, 100 complete control
[29] = Postemergence, 2000 g ai/ha, 0 to 100 scale, 0 no effect, 100 complete control
[30] = Preemergence, 2000 g ai/ha, visual rating, 0 to 100 scale (0 no effect, 100 complete control)
[31] = preemergence, 500 g ai/ha, visual injury, 0 to 100 scale (0 no effect, 100 complete control)

For CCc1nn(C2CCCC2)nc1C(=O)Nc1cccc(C(=O)N(C)C)c1 [Compound 355], the “Plant response rating (0 to 100 scale), Lambsquarters” value [1, 24] was 80, the “Lambsquarters plant response rating” value [1, 25] was 10 and the “Plant response rating, Lambsquarters” value [1, 26] was 100. The “Lambsquarters plant response rating” value [1, 27] was 70, the “Morningglory plant response rating” value [2, 28] was 15 and the “Plant response rating, Morningglory” value [2, 29] was 75. The “Morningglory plant response rating” value [2, 30] was 40, the “Morningglory plant response rating” value [2, 31] was 10 and the “Blackgrass plant response rating” value [3, 25] was 0. For the same compound, the “Blackgrass plant response rating” value [3, 27] was 20, the “Rice plant response rating” value [4] was 50 and the “Pigweed plant response rating” value [5, 28] was 40. For the same compound, the “Plant response rating, Pigweed” value [5, 29] was 90, the “Pigweed plant response rating” value [5, 30] was 50 and the “Pigweed plant response rating” value [5, 31] was 10. The “Foxtail, Giant plant response rating” value [6, 28] was 10, the “Plant response rating, Foxtail, Giant” value [6, 29] was 45 and the “Foxtail, Giant plant response rating” value [6, 30] was 60. The “Foxtail, Giant plant response rating” value [6, 31] was 20, the “Crabgrass, Large plant response rating” value [7, 28] was 10 and the “Plant response rating, Crabgrass, Large” value [7, 29] was 30. The “Crabgrass, Large plant response rating” value [7, 30] was 50, the “Crabgrass, Large plant response rating” value [7, 31] was 20 and the “Plant response rating (0 to 100 scale), Cocklebur” value [8, 24] was 0. For the same compound, the “Cocklebur plant response rating” value [8, 25] was 0, the “Plant response rating, Cocklebur” value [8, 26] was 10 and the “Cocklebur plant response rating” value [8, 27] was 10. For the same compound, the “Plant response rating (0 to 100 scale), Crabgrass, Large” value [9, 24] was 70, the “Crabgrass, Large plant response rating” value [9, 25] was 10 and the “Plant response rating, Crabgrass, Large” value [9, 26] was 100. For the same compound, the “Crabgrass, Large plant response rating” value [9, 27] was 10, the “Sedge, Umbrella plant response rating” value [10] was 70 and the “Plant response rating (0 to 100 scale), Morningglory” value [11, 24] was 10. The “Morningglory plant response rating” value [11, 25] was 10, the “Plant response rating, Morningglory” value [11, 26] was 10 and the “Morningglory plant response rating” value [11, 27] was 40. For the same compound, the “Barnyardgrass plant response rating” value [12] was 50, the “Plant response rating (0 to 100 scale), Barnyardgrass” value [13, 24] was 70 and the “Barnyardgrass plant response rating” value [13, 25] was 0. For the same compound, the “Plant response rating, Barnyardgrass” value [13, 26] was 90, the “Barnyardgrass plant response rating” value [13, 27] was 10 and the “Plant response rating (0 to 100 scale), Corn” value [14, 24] was 20. The “Corn plant response rating” value [14, 25] was 0, the “Plant response rating, Corn” value [14, 26] was 60 and the “Corn plant response rating” value [14, 27] was 0. For the same compound, the “Wheat plant response rating” value [15, 25] was 0, the “Wheat plant response rating” value [15, 27] was 20 and the “Plant response rating (0 to 100 scale), Pigweed” value [16, 24] was 50. For the same compound, the “Pigweed plant response rating” value [16, 25] was 20, the “Plant response rating, Pigweed” value [16, 26] was 100 and the “Pigweed plant response rating” value [16, 27] was 50. The “Plant response rating (0 to 100 scale), Surinam Grass” value [17, 24] was 40, the “Surinam Grass plant response rating” value [17, 25] was 10 and the “Plant response rating, Surinam Grass” value [17, 26] was 80. The “Surinam Grass plant response rating” value [17, 27] was 20, the “Plant response rating (0 to 100 scale), Velvetleaf” value [18, 24] was 0 and the “Velvetleaf plant response rating” value [18, 25] was 30. The “Velvetleaf plant response rating” value [18, 27] was 50, the “Ducksalad plant response rating” value [19] was 70 and the “Velvetleaf plant response rating” value [20, 28] was 15. For the same compound, the “Plant response rating, Velvetleaf” value [20, 29] was 65, the “Velvetleaf plant response rating” value [20, 30] was 55 and the “Velvetleaf plant response rating” value [20, 31] was 25. For the same compound, the “Plant response rating (0 to 100 scale), Foxtail, Giant” value [21, 24] was 10, the “Foxtail, Giant plant response rating” value [21, 25] was 20 and the “Plant response rating, Foxtail, Giant” value [21, 26] was 90. The “Foxtail, Giant plant response rating” value [21, 27] was 30, the “Barnyardgrass plant response rating” value [22, 28] was 40 and the “Plant response rating, Barnyardgrass” value [22, 29] was 75. For the same compound, the “Barnyardgrass plant response rating” value [22, 30] was 80, the “Barnyardgrass plant response rating” value [22, 31] was 50 and the “Oat, Wild plant response rating” value [23, 25] was 0. For the same compound, the “Oat, Wild plant response rating” value [23, 27] was 30.
